Source: ChEMBL document CHEMBL1201862, “PubChem BioAssay data set” (2004)
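Compound exposure: 48 hours, 5 concentrations, 96-well plates. At the GI50, growth is halved.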 The source made the active and inactive calls. No stated cut-off is given here; in the data, active = GI50 up to about 1.1 µM and inactive = higher.

Columns and labels:
Assay in all cases: NCI-60 cell line screen, 48 h
A549 = tested on: A549
TK-10 = tested on: TK-10
KM-20L2 = tested on: KM-20L2
OVCAR-8 = tested on: OVCAR-8
DMS-114 = tested on: DMS-114
HOP-92 = tested on: HOP-92
SW-620 = tested on: SW-620
XF498 = tested on: XF498
Malme-3M = tested on: Malme-3M
HCT-15 = tested on: HCT-15
ACHN = tested on: ACHN
786-0 = tested on: 786-0
CAKI-1 = tested on: CAKI-1
SR = tested on: SR
DLD-1 = tested on: DLD-1
UACC-257 = tested on: UACC-257
MOLT-4 = tested on: MOLT-4
U-251 = tested on: U-251
IGROV-1 = tested on: IGROV-1
OVCAR-4 = tested on: OVCAR-4
M19-MEL = tested on: M19-MEL
NCI-H23 = tested on: NCI-H23
KM12 = tested on: KM12
UO-31 = tested on: UO-31
SK-MEL-5 = tested on: SK-MEL-5
SNB-19 = tested on: SNB-19
SNB-75 = tested on: SNB-75
K562 = tested on: K562
OVCAR-3 = tested on: OVCAR-3
CCRF-CEM = tested on: CCRF-CEM
NCI-H226 = tested on: NCI-H226
HT-29 = tested on: HT-29
HCT-116 = tested on: HCT-116
RPMI-8226 = tested on: RPMI-8226
DMS-273 = tested on: DMS-273
SF-268 = tested on: SF-268
NCI-H460 = tested on: NCI-H460
COLO 205 = tested on: COLO 205
UACC-62 = tested on: UACC-62
SF-539 = tested on: SF-539
SK-MEL-28 = tested on: SK-MEL-28
HOP-62 = tested on: HOP-62
HL-60 = tested on: HL-60
SK-MEL-2 = tested on: SK-MEL-2
M14 = tested on: M14
LXFL 529 = tested on: LXFL 529
SF-295 = tested on: SF-295
NCI-H522 = tested on: NCI-H522
OVCAR-5 = tested on: OVCAR-5
HCC 2998 = tested on: HCC 2998
SNB-78 = tested on: SNB-78
SK-OV-3 = tested on: SK-OV-3
RXF 393 = tested on: RXF 393
SN12C = tested on: SN12C

In the case of O=C(c1ccccc1)c1c(CC(O)c2ccccc2)n(C(=O)c2ccccc2)c2ccccc12 (centres undefined), the GI50 (A549) is reported as 31.6 µM (inactive), the GI50 (TK-10) is reported as > 100 µM (inactive) and the GI50 (KM-20L2) is reported as 55.8 µM (inactive). For the same compound, the GI50 (OVCAR-8) was 57.7 µM (inactive), the GI50 (DMS-114) was 28 µM (inactive) and the GI50 (HOP-92) was 29.7 µM (inactive). For the same compound, the GI50 (SW-620) was 50.7 µM (inactive), the GI50 (XF498) was > 100 µM (inactive) and the GI50 (Malme-3M) was 56.2 µM (inactive). For the same compound, the GI50 (HCT-15) was 32.7 µM, the GI50 (ACHN) was 34.4 µM (inactive) and the GI50 (786-0) was > 100 µM (inactive). The GI50 (CAKI-1) was 55.7 µM (inactive), the GI50 (SR) was 16.9 µM (inactive) and the GI50 (DLD-1) was 40.9 µM (inactive). The GI50 (UACC-257) was 35.3 µM (inactive), the GI50 (MOLT-4) was 16.6 µM (inactive) and the GI50 (U-251) was 36.1 µM (inactive). The GI50 (IGROV-1) was 42.6 µM (inactive), the GI50 (OVCAR-4) was 35.5 µM (inactive) and the GI50 (M19-MEL) was 59 µM (inactive). The GI50 (NCI-H23) was 19 µM (inactive), the GI50 (KM12) was 32 µM (inactive) and the GI50 (UO-31) was 19.9 µM (inactive). The GI50 (SK-MEL-5) was 29.2 µM (inactive), the GI50 (SNB-19) was 36.4 µM (inactive) and the GI50 (SNB-75) was 6.97 µM (inactive). For the same compound, the GI50 (K562) was 27.9 µM (inactive), the GI50 (OVCAR-3) was 28.8 µM (inactive) and the GI50 (CCRF-CEM) was 35.8 µM (inactive). The GI50 (NCI-H226) was 31.6 µM (inactive), the GI50 (HT-29) was 63.8 µM (inactive) and the GI50 (HCT-116) was 23.1 µM (inactive). For the same compound, the GI50 (RPMI-8226) was 25.2 µM (inactive), the GI50 (DMS-273) was 43 µM (inactive) and the GI50 (SF-268) was 43.5 µM (inactive). For the same compound, the GI50 (NCI-H460) was 30.1 µM (inactive), the GI50 (COLO 205) was 47.6 µM (inactive) and the GI50 (UACC-62) was 46.3 µM (inactive). The GI50 (SF-539) was 34.2 µM (inactive), the GI50 (SK-MEL-28) was 95.1 µM (inactive) and the GI50 (HOP-62) was 24.2 µM (inactive). The GI50 (HL-60) was 31.3 µM (inactive), the GI50 (SK-MEL-2) was 36.5 µM (inactive) and the GI50 (M14) was 33 µM (inactive). For the same compound, the GI50 (LXFL 529) was 39.5 µM (inactive), the GI50 (SF-295) was 28.8 µM (inactive) and the GI50 (NCI-H522) was 17.5 µM (inactive). For the same compound, the GI50 (OVCAR-5) was > 100 µM (inactive) and the GI50 (HCC 2998) was 42.1 µM (inactive).

O=C(N/C(=C\c1ccc(Br)cc1)c1nc2ccccc2[nH]1)c1ccccc1 was tested, and the GI50 (SNB-78) was 21.9 µM (inactive), the GI50 (TK-10) was 30.1 µM (inactive) and the GI50 (SK-OV-3) was 34.6 µM (inactive). The GI50 (KM-20L2) was 15.1 µM (inactive), the GI50 (OVCAR-8) was 21 µM (inactive) and the GI50 (HOP-92) was 11.6 µM (inactive). The GI50 (SW-620) was 16.1 µM (inactive), the GI50 (XF498) was 15.9 µM (inactive) and the GI50 (Malme-3M) was 22.9 µM (inactive). The GI50 (HCT-15) was 16.3 µM, the GI50 (CAKI-1) was 23.3 µM (inactive) and the GI50 (SR) was 18.3 µM (inactive). For the same compound, the GI50 (DLD-1) was 17.5 µM (inactive), the GI50 (MOLT-4) was 17.6 µM (inactive) and the GI50 (U-251) was 17.3 µM (inactive). For the same compound, the GI50 (IGROV-1) was 24.7 µM (inactive), the GI50 (OVCAR-4) was 13.3 µM (inactive) and the GI50 (NCI-H23) was 17.1 µM (inactive). The GI50 (KM12) was 17.5 µM (inactive), the GI50 (UO-31) was 15.6 µM (inactive) and the GI50 (SK-MEL-5) was 19.8 µM (inactive). For the same compound, the GI50 (SNB-19) was 18.4 µM (inactive), the GI50 (K562) was 15.8 µM (inactive) and the GI50 (OVCAR-3) was 19.1 µM (inactive). The GI50 (CCRF-CEM) was 19.9 µM (inactive), the GI50 (RXF 393) was 16.4 µM (inactive) and the GI50 (HT-29) was 18.1 µM (inactive). For the same compound, the GI50 (DMS-273) was 24.3 µM (inactive), the GI50 (COLO 205) was 18.9 µM (inactive) and the GI50 (UACC-62) was 18.8 µM (inactive). For the same compound, the GI50 (SK-MEL-28) was 15.8 µM (inactive), the GI50 (SK-MEL-2) was 16.3 µM (inactive) and the GI50 (M14) was 18.2 µM (inactive). For the same compound, the GI50 (LXFL 529) was 13.6 µM (inactive), the GI50 (SF-295) was 28 µM (inactive) and the GI50 (NCI-H522) was 14.5 µM (inactive). The GI50 (SN12C) was 18.4 µM (inactive), the GI50 (OVCAR-5) was 14.9 µM (inactive) and the GI50 (HCC 2998) was 17.2 µM (inactive).
